Marks after values point to notes of the source that are not given here.
How the values were obtained:
[1] = system: Enterococcus faecalis (ATCC 29212); assay: Antibacterial activity, agar disc diffusion; assay type: cell-based; conditions: 10 μg / disc, positive control
Experimental: (§1) The V. lippii fractions were assessed against a five bacterial strains: Gram-negative: Salmonella enterica (CIP 8039) and Escherichia coli (ATCC 8739), Gram-positive: Staphylococcus aureus (ATCC 6538), Bacillus thuringiensis, and Enterococcus faecalis (ATCC 29212). Bacteria not obtained from an ATCC collection were acquired from the Microbiology Department, Faculty of Science, University of Sfax (Tunisia). Bacterial strains were cultured in Mueller-Hinton agar (MHA) for 24 h at 37°C.
(§2) The disc diffusion method was employed for the determination of antibacterial activities of V. lippii fractions according to the method described by Berghe and Vlietinck. Antibacterial activities were evaluated by measuring the diameters of the inhibition zones against the test organisms and compared to penicillin (10 μg per disk) as the positive control. Tests were carried out in triplicate.

[2] = system: Staphylococcus aureus (ATCC 6538); assay: Antibacterial activity, agar disc diffusion; assay type: cell-based; conditions: 10 μg / disc, positive control
Experimental: as §1, §2

Bacillus thuringiensis = assay: Antibacterial activity, agar disc diffusion; assay type: cell-based; conditions: 10 μg / disc, positive control
Experimental: as §1, §2

[3] = system: Escherichia coli (ATCC 8739); assay: Antibacterial activity, agar disc diffusion; assay type: cell-based; conditions: 10 μg / disc, positive control
Experimental: as §1, §2

pancreatic α-amylase = target: T1, pancreatic α-amylase (Sus scrofa, UniProt P00690); assay: biochemical
T1 construct: purchased Merck (Sigma-Aldrich, Steinheim, Germany)
T1 sequence (P00690 16-511): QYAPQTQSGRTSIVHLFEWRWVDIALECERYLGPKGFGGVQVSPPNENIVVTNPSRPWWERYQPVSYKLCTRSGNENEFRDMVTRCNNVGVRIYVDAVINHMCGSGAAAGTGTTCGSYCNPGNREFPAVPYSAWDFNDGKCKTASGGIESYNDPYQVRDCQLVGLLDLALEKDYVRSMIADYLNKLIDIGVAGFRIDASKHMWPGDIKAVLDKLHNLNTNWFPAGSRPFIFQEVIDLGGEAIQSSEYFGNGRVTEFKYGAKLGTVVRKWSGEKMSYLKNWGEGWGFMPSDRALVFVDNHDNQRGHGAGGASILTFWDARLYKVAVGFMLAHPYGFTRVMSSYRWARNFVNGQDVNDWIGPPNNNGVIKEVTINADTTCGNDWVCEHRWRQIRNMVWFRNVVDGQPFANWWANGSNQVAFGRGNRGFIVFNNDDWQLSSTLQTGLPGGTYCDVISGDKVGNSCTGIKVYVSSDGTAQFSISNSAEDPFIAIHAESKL
Experimental: The in vitroα-amylase inhibitory assay of all fractions was performed by the previous method described by Gella et al.. […] Percentage inhibition (PI) was calculated by the following expression:(3) PI%=Acontrol – Asample/Acontrol×100 where Acontrol is the absorbance of the control and Asample is the absorbance of the test sample.

[4] = DPPH radical scavenging assay; conditions: 30 min in the dark, absorbance at 517 nm
Experimental: The DPPH radical scavenging activity of different fractions of V. lippii was evaluated following the procedure described by Les et al. [14]. […] The final concentrations in the reaction's mixture were 0.005-0.5 mg/mL. Each mixture was shaken and allowed in the dark for 30 min at room temperature. The blank was prepared as above without any extract and the BHT was used as positive control. […] The PI was calculated using the following equation:(1) PI%=Ablank – Asample/Ablank×100 where Ablank is the absorbance of the blank and Asample is the absorbance of the test sample.
The calibration curve for scavenging percentage against extract concentration was plotted and the IC50 (half maximal inhibitory concentration) value of each sample was established.

[5] = Reducing power assay (FRAP); conditions: effective concentration at which the absorbance is 0.5 (700 nm)
Experimental: The reducing power of all fractions was evaluated using the procedure of Yildirim et al., and BHT was used as positive control. A 1 mL of different concentrations of each V. lippii sample (5, 10, 25, 50,100 μg/mL) was mixed with 2.5 mL of 1% potassium ferricyanide and 2.5 mL of sodium phosphate buffer (0.2 M, pH= 6.6). The mixture was incubated for 20 min at 50°C and then 2.5 mL of 10% trichloroacetic acid were added and centrifuged for 10 minutes. 2.5 mL of the supernatant were mixed with 0.5 mL of ferric chloride solution (0.1%) and 2.5 mL of distilled water. The absorbance of the mixture was measured at 700 nm.

penicillin
Inhibition zone in diameter [1]: 16.0±0.2^c mm
Inhibition zone in diameter [2]: 14.1±0.5^c mm
Inhibition zone in diameter (Bacillus thuringiensis): 18.0±0.4^d mm
Inhibition zone in diameter [3]: 16.3±0.1^d mm

C[C@H]1O[C@H](O[C@H]2[C@H](O)[C@@H](O)[C@@H](O[C@H]3[C@H](O)[C@@H](O)C(O)O[C@@H]3CO)O[C@@H]2CO)[C@H](O)[C@@H](O)[C@@H]1N[C@H]1C=C(CO)[C@@H](O)[C@H](O)[C@H]1O (stereo partly drawn) [Acarbose, acarbose]
inhibition at 2.85 µg/mL (pancreatic α-amylase; concentration 2.85 μg/mL): 29.8 ± 0.07%
inhibition at 5.71 µg/mL (pancreatic α-amylase; concentration 5.71 μg/mL): 51.52 ± 0.02%
inhibition at 11.42 µg/mL (pancreatic α-amylase; concentration 11.42 μg/mL): 86.62 ± 0.04%

Cc1cc(C(C)(C)C)c(O)c(C(C)(C)C)c1 [BHT, butylated hydroxytoluene]
DPPH IC50 [4]: 13.00±0.57^a μg/mL
Reducing power EC50 [5]: 43.35±0.95^a μg/mL

— publication PMC6613030, “LC-ESI-MS/MS Phenolic Profile of Volutaria lippii (L.) Cass. Extracts and Evaluation of Their In Vitro Antioxidant, Antiacetylcholinesterase, Antidiabetic, and Antibacterial Activities” (Evidence-based Complementary and Alternative Medicine : eCAM, 2019)
